According to ChEMBL document CHEMBL1201862, “PubChem BioAssay data set” (2004):
Active and inactive are the calls of the source. Unless noted, no cut-off for these calls is given here.

Legend:
[1] = target: T1, Peroxisome proliferator-activated receptor gamma (Homo sapiens, UniProt P37231); assay: PPARg ligand-binding domain binders, dose response, PPARg partial agonist project, biochemical, TR-FRET, LanthaScreen (AID 504446)
[2] = target: T1, Peroxisome proliferator-activated receptor gamma; assay: PPARg partial agonists, dose response, cell-based, luminescence, assay provider (AID 504447); format: functional
[3] = target: Peroxisome proliferator-activated receptor alpha (Homo sapiens, UniProt Q07869); assay: Late stage assay provider counterscreen for partial agonists of the peroxisome proliferator-activated receptor gamma (PPARg): Luminescence-based cell-based dose response assay for partial agonists of the peroxisome proliferator-activated receptor alpha (PPARA). [Related pubchem assays (depositor defined):AID1051, AID1300, AID1319, AID1679, AID1808, AID504446, AID504447, AID504452, AID504453, AID631]; format: functional
Large T antigen = Large T antigen (Simian virus 40, UniProt P03070); format: functional, Betapolyomavirus macacae;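 note: Confirmatory-stage PubChem screen for compounds that inhibit SV40 T antigen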
[4] = target: Induced myeloid leukemia cell differentiation protein Mcl-1 (Homo sapiens, UniProt Q07820); format: functional
[5] = target: Intestinal-type alkaline phosphatase (Homo sapiens, UniProt P09923); assay: activation of human intestinal alkaline phosphatase – biochemical, dose response (AID 488873); format: functional
[6] = target: T2, Intestinal-type alkaline phosphatase (Mus musculus, UniProt P24822); assay: mouse intestinal alkaline phosphatase activators, dose response, biochemical, luminescence, uHTS hits (AID 488783); format: functional
[7] = target: T3, Alkaline phosphatase, tissue-nonspecific isozyme (Homo sapiens, UniProt P05186); assay: TNAP enzyme activators, dose response, selectivity assay for mouse IAP activator project, biochemical, TNAP isozyme, mouse IAP uHTS hits (AID 488880); format: functional
T3 sequence (P05186 whole entry): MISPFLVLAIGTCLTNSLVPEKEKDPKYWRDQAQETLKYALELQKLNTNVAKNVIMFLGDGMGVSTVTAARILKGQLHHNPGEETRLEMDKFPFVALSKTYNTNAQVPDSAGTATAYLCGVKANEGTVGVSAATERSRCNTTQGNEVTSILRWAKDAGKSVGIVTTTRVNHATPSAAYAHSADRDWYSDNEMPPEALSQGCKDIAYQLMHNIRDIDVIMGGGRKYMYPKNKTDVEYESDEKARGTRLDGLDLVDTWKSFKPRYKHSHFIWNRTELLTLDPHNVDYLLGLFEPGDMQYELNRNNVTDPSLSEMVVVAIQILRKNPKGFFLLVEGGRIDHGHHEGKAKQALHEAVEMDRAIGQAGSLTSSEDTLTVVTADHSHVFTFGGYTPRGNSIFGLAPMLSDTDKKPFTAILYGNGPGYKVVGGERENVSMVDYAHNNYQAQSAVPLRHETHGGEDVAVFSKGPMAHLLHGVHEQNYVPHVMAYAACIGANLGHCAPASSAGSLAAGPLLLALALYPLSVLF

[8] = target: T4, DNA dC->dU-editing enzyme APOBEC-3A (Homo sapiens, UniProt P31941); assay: SAR analysis of small molecule inhibitors of APOBEC3A DNA Deaminase via a fluorescence-based single-stranded DNA deaminase assay - Set 2.; format: functional; conditions: read-out: IC50_Mean
[9] = target: T5, DNA dC->dU-editing enzyme APOBEC-3G (Homo sapiens, UniProt Q9HC16); assay: SAR analysis of small molecule inhibitors of APOBEC3G DNA Deaminase via a fluorescence-based single-stranded DNA deaminase assay - Set 2.; format: functional; conditions: read-out: IC50_Mean
[10] = target: T5, DNA dC->dU-editing enzyme APOBEC-3G; assay: APOBEC3G deaminase inhibitors, SAR follow-up, biochemical, fluorescence, single-stranded DNA substrate (AID 602136); format: functional; conditions: read-out: IC50_Mean
[11] = target: T4, DNA dC->dU-editing enzyme APOBEC-3A; assay: SAR analysis of small molecule inhibitors of APOBEC3A DNA Deaminase via a fluorescence-based single-stranded DNA deaminase assay.; format: functional; conditions: read-out: IC50_Mean
[12] = target: Runt-related transcription factor 1/Core-binding factor subunit beta (Homo sapiens, UniProt Q01196+Q13951); assay: Confirmation of compounds inhibiting the binding between the RUNX1 Runt domain and CBFb-SMMHC via a fluorescence resonance energy transfer (FRET) assay. [Related pubchem assays (depositor defined):AID1434, AID1438, AID1496, AID1550, AID1645]; format: protein assay
[13] = target: Sphingosine 1-phosphate receptor 5 (Homo sapiens, UniProt Q9H228); assay: (§1) Late-stage fluorescence-based dose-response cell-based assay to identify agonists of the Sphingosine 1-Phosphate Receptor 4 (S1P4): Sphingosine 1-Phosphate Receptor 5 (S1P5) counterscreen assay. [Related pubchem assays (depositor defined):AID1509, AID1523, AID1563, AID1686, AID1701, AID1801, AID463107, AID463225, AID504400]; format: functional
[14] = target: T6, Sphingosine 1-phosphate receptor 4 (Homo sapiens, UniProt O95977); assay: S1P4 receptor agonists, human, late-stage follow-up, cell-based, fluorescence, synthesized compounds (AID 463107); format: functional
T6 sequence (O95977 whole entry): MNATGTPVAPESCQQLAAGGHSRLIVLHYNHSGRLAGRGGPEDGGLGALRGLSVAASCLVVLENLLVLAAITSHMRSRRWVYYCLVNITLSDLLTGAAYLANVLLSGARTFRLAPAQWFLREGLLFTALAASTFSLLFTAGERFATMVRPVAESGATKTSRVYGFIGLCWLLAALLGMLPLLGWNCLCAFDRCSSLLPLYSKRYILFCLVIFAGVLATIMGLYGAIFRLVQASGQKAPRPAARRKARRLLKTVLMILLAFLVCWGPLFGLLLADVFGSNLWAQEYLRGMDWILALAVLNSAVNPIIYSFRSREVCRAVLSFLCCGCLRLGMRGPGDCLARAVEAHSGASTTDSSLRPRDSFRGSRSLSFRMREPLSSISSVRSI

[15] = target: Sphingosine 1-phosphate receptor 1 (Homo sapiens, UniProt P21453); assay: as §1, with “1 (S1P1)” for “5 (S1P5)”; format: functional
[16] = target: Sphingosine 1-phosphate receptor 2 (Homo sapiens, UniProt O95136); assay: as §1, with “2 (S1P2)” for “5 (S1P5)”; format: functional
[17] = target: Sphingosine 1-phosphate receptor 3 (Homo sapiens, UniProt Q99500); assay: as §1, with “3 (S1P3)” for “5 (S1P5)”; format: functional
[18] = target: T7, Kappa-type opioid receptor (Homo sapiens, UniProt P41145); assay: KOR agonist analogs, arrestin-GFP redistribution, SAR follow-up, imaging, image-based, set 3 (AID 488833); format: functional
Mu-type opioid receptor = Mu-type opioid receptor (Homo sapiens, UniProt P35372); assay: SAR Analysis of Agonists of the MOR Receptor using an Image-Based Assay - Set 3. [Related pubchem assays (depositor defined):AID1777, AID1785, AID1786, AID1966, AID2133, AID2136, AID2284, AID2285, AID2352]; format: functional
[19] = target: Delta-type opioid receptor (Homo sapiens, UniProt P41143); assay: SAR Analysis of Agonists of the DOR Receptor using an Image-Based Assay - Set 3. [Related pubchem assays (depositor defined):AID1777, AID1786]; format: functional
[20] = target: T7, Kappa-type opioid receptor; assay: SAR analysis of small molecule agonists of the kappa opioid receptor via a luminescent beta-arrestin assay - Set 3. [Related pubchem assays (depositor defined):AID1777, AID1785, AID1786, AID1966, AID2133, AID2136, AID2284, AID2500]; format: functional
[21] = target: T8, Tyrosine-protein phosphatase non-receptor type 7 (Homo sapiens, UniProt P35236); format: functional
T8 sequence (P35236 whole entry): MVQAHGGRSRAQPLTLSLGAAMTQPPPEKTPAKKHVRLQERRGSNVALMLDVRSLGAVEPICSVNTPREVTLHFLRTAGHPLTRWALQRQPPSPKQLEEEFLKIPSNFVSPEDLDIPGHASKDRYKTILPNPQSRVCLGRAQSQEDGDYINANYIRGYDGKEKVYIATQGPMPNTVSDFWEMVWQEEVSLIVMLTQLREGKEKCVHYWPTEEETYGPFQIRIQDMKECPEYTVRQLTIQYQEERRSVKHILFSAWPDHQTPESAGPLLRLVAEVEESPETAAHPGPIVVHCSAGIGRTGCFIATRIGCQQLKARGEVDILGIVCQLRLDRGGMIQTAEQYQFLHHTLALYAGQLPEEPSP

[22] = target: T9, Tyrosine-protein phosphatase non-receptor type 22 (Homo sapiens, UniProt Q9Y2R2); format: functional
T9 sequence (Q9Y2R2 whole entry): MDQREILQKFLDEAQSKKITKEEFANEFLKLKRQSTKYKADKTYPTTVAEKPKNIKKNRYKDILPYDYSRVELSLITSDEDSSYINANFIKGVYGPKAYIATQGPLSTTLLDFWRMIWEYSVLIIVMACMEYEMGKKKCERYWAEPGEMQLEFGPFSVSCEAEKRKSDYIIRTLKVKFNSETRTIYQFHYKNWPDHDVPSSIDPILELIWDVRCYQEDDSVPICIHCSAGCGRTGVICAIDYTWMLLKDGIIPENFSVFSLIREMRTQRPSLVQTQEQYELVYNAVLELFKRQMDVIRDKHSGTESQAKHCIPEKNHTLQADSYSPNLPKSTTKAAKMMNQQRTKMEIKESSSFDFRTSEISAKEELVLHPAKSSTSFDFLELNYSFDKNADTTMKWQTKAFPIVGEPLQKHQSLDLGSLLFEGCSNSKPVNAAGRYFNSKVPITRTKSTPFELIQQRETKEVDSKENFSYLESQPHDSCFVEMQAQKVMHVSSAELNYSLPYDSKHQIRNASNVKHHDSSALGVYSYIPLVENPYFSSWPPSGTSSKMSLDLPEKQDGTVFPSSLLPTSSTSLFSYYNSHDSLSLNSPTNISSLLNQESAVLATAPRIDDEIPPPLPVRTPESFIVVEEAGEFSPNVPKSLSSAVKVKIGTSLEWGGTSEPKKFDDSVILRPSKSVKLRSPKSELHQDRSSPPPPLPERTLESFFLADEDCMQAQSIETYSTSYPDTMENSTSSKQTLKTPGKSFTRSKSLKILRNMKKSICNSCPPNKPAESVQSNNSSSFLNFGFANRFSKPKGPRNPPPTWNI

[23] = target: T9, Tyrosine-protein phosphatase non-receptor type 22; format: functional; remark: listed apart in the source
[24] = target: T10, RNA-binding protein pos-1 (Caenorhabditis elegans, UniProt G5EF15); assay: inhibitors of POS-1/mex-3 RNA binding, dose response, biochemical, fluorescence polarization (AID 1964);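 note: purified POS-1 fused to maltose binding protein made in E. coli; potency of compounds blocking POS-1 binding to fluorescent RNA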
T10 sequence (G5EF15 whole entry): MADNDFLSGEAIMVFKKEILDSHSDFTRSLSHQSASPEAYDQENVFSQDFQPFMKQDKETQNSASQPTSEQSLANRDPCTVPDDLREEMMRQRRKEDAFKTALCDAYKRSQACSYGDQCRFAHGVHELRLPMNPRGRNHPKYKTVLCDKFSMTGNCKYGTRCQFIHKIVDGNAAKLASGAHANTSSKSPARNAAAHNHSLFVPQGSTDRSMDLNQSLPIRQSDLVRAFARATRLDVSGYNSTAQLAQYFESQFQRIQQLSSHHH

[25] = target: T11, Zinc finger protein mex-5 (Caenorhabditis elegans, UniProt Q9XUB2); assay: MEX-5/TCR-2 RNA interaction inhibitors, dose response, biochemical, C. elegans, fluorescence polarization (AID 1960)
T11 sequence (Q9XUB2 whole entry): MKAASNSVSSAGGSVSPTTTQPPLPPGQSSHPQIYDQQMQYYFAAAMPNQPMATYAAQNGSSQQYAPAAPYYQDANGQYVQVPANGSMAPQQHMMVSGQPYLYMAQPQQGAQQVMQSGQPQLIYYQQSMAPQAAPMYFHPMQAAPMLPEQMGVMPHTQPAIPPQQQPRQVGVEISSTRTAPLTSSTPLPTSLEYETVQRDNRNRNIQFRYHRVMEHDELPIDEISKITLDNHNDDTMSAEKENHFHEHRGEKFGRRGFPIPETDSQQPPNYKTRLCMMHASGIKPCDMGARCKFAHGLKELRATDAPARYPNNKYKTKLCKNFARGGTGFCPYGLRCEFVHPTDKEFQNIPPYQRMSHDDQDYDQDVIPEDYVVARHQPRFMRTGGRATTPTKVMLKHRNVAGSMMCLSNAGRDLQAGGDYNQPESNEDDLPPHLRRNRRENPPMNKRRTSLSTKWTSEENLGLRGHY

[26] = target: T2, Intestinal-type alkaline phosphatase; assay: PubChem AID 488785; format: functional
[27] = target: T3, Alkaline phosphatase, tissue-nonspecific isozyme; assay: TNAP enzyme inhibition by screening hits, dose response, selectivity assay for mouse IAP inhibitor project, biochemical, human TNAP, uHTS hits (AID 488906); format: functional

T2 sequence (P24822 whole entry): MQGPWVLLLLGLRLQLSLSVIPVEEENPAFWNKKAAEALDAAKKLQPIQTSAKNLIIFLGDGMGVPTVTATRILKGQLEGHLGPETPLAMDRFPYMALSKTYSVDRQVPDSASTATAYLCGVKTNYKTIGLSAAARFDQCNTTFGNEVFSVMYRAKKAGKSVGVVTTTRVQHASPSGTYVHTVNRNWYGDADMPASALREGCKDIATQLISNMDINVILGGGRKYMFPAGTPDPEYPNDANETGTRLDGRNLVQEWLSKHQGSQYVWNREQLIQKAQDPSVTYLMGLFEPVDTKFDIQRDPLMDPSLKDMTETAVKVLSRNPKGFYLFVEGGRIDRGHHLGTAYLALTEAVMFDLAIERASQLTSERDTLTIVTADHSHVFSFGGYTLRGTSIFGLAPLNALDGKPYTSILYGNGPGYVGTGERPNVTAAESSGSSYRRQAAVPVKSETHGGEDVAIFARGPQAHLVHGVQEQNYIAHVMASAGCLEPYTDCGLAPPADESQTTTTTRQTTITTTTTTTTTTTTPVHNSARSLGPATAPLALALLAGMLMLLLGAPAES
T5 sequence (Q9HC16 whole entry): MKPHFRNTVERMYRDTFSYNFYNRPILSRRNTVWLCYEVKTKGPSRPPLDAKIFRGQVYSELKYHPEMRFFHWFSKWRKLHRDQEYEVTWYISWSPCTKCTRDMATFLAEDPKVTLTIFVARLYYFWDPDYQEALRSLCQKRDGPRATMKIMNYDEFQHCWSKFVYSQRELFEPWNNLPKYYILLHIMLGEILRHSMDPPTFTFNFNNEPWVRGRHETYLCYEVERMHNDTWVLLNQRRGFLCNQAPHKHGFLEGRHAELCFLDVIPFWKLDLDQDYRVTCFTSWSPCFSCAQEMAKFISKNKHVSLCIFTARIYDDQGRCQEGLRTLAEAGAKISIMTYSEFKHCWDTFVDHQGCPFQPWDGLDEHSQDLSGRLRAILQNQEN
T7 sequence (P41145 whole entry): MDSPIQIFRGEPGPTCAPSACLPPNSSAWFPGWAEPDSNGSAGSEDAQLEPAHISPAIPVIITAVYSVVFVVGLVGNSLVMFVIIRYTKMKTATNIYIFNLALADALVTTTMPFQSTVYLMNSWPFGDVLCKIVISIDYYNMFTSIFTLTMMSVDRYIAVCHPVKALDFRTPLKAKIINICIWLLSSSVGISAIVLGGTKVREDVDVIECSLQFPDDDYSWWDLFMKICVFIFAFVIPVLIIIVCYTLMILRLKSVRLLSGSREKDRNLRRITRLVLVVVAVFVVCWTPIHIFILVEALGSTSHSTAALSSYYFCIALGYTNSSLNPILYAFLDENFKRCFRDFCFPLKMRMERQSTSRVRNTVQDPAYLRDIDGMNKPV
T1 sequence (P37231 whole entry, the tested form may be a part): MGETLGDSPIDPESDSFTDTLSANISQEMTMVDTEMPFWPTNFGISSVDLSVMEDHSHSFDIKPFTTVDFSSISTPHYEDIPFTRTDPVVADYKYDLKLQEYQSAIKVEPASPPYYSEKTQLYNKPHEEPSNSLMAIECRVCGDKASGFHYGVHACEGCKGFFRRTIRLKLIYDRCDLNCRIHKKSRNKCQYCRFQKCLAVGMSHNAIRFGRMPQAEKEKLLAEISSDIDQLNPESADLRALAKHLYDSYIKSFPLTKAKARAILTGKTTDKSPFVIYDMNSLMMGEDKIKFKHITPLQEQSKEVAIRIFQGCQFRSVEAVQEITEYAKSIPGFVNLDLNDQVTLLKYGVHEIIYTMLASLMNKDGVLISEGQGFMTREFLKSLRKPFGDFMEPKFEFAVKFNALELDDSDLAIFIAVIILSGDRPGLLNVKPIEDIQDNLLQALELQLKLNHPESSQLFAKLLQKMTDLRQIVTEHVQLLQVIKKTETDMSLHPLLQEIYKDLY
T4 sequence (P31941 whole entry): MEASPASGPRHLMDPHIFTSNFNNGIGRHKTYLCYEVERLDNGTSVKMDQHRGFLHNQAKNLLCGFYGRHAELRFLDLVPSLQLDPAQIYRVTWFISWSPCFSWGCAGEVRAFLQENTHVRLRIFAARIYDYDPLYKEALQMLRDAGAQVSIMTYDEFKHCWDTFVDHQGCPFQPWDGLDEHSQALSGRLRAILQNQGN
Chain of Intestinal-type alkaline phosphatase (Homo sapiens, UniProt P09923) (P09923 whole entry): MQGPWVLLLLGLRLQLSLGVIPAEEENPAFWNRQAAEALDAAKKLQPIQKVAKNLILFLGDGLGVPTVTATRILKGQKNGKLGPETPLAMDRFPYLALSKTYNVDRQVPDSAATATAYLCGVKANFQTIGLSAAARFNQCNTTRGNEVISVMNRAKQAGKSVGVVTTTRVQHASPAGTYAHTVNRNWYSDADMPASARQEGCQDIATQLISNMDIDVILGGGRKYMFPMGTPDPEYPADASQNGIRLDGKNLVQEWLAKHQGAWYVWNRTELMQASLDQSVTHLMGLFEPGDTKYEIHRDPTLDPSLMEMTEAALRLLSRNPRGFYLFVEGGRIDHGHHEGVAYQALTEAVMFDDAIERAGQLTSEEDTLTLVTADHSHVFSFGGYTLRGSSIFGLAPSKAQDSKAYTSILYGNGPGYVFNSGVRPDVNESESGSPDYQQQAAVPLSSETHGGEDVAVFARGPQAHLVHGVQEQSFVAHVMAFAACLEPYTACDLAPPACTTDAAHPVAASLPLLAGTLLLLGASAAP
Chain of Sphingosine 1-phosphate receptor 1 (P21453 whole entry): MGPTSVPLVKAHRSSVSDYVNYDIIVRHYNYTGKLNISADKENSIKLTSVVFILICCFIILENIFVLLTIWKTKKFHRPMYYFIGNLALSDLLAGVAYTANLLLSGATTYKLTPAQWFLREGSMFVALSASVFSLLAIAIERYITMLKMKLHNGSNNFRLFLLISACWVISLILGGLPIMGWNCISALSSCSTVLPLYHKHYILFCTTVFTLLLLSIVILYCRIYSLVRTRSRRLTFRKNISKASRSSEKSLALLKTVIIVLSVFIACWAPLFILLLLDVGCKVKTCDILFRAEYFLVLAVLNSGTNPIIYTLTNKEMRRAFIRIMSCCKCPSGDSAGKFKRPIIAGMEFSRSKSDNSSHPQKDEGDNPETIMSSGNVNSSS
Chain of Peroxisome proliferator-activated receptor alpha (Q07869 whole entry): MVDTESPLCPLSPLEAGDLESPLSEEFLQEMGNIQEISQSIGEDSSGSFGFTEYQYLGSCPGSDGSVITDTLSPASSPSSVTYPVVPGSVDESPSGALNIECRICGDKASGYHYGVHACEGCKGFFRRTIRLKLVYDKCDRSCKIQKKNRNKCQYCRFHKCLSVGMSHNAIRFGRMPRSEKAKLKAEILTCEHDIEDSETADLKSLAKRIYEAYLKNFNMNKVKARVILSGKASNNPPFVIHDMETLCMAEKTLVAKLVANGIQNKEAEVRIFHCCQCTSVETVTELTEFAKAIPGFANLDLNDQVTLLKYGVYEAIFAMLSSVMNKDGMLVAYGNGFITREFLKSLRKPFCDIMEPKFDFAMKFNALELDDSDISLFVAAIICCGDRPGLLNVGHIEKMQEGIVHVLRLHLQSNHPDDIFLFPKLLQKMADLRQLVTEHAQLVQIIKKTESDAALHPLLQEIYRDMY
Chain of Sphingosine 1-phosphate receptor 2 (O95136 whole entry): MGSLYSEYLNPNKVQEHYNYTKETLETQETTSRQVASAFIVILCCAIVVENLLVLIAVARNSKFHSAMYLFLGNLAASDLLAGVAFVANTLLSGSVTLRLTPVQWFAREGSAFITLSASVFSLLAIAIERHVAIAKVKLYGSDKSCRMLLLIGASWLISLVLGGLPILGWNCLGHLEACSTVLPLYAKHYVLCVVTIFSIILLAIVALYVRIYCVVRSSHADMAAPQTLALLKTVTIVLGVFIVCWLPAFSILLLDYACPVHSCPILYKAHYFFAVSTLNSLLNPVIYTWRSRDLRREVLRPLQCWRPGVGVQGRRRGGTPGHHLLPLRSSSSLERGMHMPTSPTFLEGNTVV
Chain of Mu-type opioid receptor (P35372 whole entry): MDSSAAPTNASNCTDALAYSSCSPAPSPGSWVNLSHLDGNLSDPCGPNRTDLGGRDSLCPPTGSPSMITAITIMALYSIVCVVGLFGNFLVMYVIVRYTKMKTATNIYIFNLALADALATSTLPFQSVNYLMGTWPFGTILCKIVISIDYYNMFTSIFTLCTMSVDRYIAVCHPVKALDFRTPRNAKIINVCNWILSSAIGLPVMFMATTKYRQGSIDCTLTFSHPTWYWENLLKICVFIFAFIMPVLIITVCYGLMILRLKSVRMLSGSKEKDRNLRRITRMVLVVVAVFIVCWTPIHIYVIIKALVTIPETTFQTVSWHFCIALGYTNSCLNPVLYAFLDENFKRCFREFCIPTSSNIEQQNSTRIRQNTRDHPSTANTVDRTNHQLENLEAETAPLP
Chain of Induced myeloid leukemia cell differentiation protein Mcl-1 (Q07820 whole entry): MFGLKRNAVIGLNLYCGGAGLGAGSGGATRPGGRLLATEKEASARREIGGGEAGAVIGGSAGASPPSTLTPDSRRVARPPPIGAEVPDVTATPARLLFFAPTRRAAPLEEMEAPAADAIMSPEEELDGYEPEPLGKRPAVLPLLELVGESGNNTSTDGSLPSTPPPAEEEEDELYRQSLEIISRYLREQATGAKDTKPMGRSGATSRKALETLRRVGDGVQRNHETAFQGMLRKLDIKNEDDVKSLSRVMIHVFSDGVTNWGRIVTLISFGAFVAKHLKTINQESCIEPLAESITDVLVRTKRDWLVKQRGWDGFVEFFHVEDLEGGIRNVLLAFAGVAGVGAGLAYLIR
Chain of Sphingosine 1-phosphate receptor 3 (Q99500 whole entry): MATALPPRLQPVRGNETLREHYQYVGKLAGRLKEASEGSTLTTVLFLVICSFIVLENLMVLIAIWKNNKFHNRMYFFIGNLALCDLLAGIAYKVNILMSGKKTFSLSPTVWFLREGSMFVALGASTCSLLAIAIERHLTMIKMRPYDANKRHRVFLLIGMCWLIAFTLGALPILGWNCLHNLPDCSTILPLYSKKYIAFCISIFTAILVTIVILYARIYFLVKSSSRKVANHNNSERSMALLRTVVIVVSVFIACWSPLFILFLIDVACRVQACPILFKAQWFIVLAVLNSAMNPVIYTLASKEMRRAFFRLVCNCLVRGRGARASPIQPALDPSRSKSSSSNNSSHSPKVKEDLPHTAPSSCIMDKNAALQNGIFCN

O=C(O)CCN1C(=O)/C(=C\c2cccc(OCc3ccccc3)c2)SC1=S
IC50 [1]: 0.276 µM (active)
EC50 [2]: 1.5 µM (active)
EC50 [3]: > 3 µM (inactive)

O=C1NC(=S)NC(=O)C1=Cc1ccc2c(c1)CCN2CCCCl
IC50 (Large T antigen): 28.8 µM (active)
IC50 [4]: > 54 µM (active)
EC50 [5]: 96.3 µM (active)
EC50 [6]: 76.6 µM (active)
EC50 [7]: 55.5 µM (active)
IC50 [8]: 6.63 µM (active)
IC50 [9]: 4.14 µM (active)
IC50 [10]: 2.91 µM (active)
IC50 [11]: 9.27 µM (active)

CCc1ccc(S(=O)(=O)Nc2ccc(-c3nc4cccnc4s3)cc2)s1
IC50 [12]: > 100 µM (inactive)

C/N=C1\SC(=Cc2cc(C)n(Cc3c(F)cccc3F)c2C)C(=O)N1OC
EC50 [13]: 0.339 µM (active)
EC50 [14]: 0.0886 µM (active)
EC50 [15]: 0.113 µM (active)
EC50 [16]: > 50 µM (inactive)
EC50 [17]: > 50 µM (inactive)

Cc1cc(C)c(CSc2nnc(-c3ccccn3)n2Cc2cccs2)c(C)c1
EC50 [18]: 9.5 µM (active)
EC50 (Mu-type opioid receptor): > 32 µM (inactive)
EC50 [19]: > 32 µM (inactive)
EC50 [20]: > 20 µM (inactive)

N/C(=N\N=C\c1ccc2c(c1)OCO2)SC1CC(=O)N(c2ccc(C(=O)O)cc2)C1=O (stereo not given)
IC50 [21]: 7.33 µM (active)
IC50 [22]: 7.65 µM (active)
IC50 [23]: 8.58 µM (active)

O=C(O)Cc1ccc(O)c(O)c1 [3,4-DIHYDROXYPHENYLACETIC ACID]
EC50 [24]: 49.8 µM (active)
EC50 [25]: 28.9 µM (active)
EC50 [5]: > 100 µM (inactive)
IC50 [26]: 4.17 µM (active)
IC50 [27]: > 100 µM (inactive)
